# Measurements from patent US11607404B2, “Combinations of RAD51 and PARP inhibitors” (Cyteir Therapeutics, Inc., priority 2019, dated 2023).
# Tests used:
# [1] = system: ARPE19/HPV16 (HPV Immortalized RPE); assay: Cell line screen (potency assay); assay type: cell-based; details: ARPE-19, AICDA expression Negative
# Experimental: The first step was to set up a cell killing assay in the Daudi cell line (AID positive). A 96 well u-bottom plate was prepared by writing the experiment number, plate number, date and initials in the top right corner of the plate lid. With a sterile 300 ml reservoir, and 25 ml serological pipette, evaporation buffer media was pipetted into reservoir in 25 ml increments. Using the liquid handler, 150 ul of evaporation buffer media was pipetted from reservoir into rows A and H, and Columns 1 and 12 of the 96 well u-bottom plate. Cell cultures were counted to obtain the density of cells per ml, and the culture viability. The cell density information was used to obtain 1,000,000 cells from culture using a 5 mL serological pipette into an epi tube. The cell density information from the culture was used to calculate the number of cells and volume of media needed for the assay to seed 1250 cells in 130 ul of media per available culture well in the 96 well u-bottom plate. Rows B through F were used for cells (50 wells in total), with row G left for an empty media control. The calculation was overestimated by 10 mL to account for the dead volume in the 300 ml reservoir. Once the media volume was calculated, the appropriate volume of media was pipetted in 25 mL increments into the 250 mL bottle using a 25 mL serological pipette. The 250 ml bottle was capped tightly, and placed into a 37° C. water bath for 2 minutes. While the culture media was warming, 10 mL of fresh media was pipetted from the 500 mL culture media bottle into a sterile 25 mL reservoir. Using the Eppendorf multichannel pipette, 130 ul of media was piptted from the 25 mL reservoir into row G of the 96 well u-bottom plate. Once the 250 mL bottle of media was warmed, the volume of culture needed was pipetted into the bottle, and mixed gently with a 25 mL serological pipette as to not create bubbles, and then the contents of the bottle were pipetted into a new 300 mL reservoir. Using the liquid handler, 130 ul of culture was pipetted from the 300 mL reservoir into rows B through F of the 96 well u-bottom plate. Once the culture was added, the plate was placed into a 37° C. incubator until the compound master plate was prepared for use.
# Two 96 well u-bottom plates were prepared by writing the master plate name in the upper right corner of the plate lid. Labeling one DMSO master and the other Media Master. The compounds of interest were obtained from the laboratory freezer, and placed into a 25 well storage box with a lid, and set the box aside. The compounds were vortexed after thawing but before use. Using an automatic multichannel pipette, 20 ul of 100% DMSO was pipetted into wells B3-B11 through G3-G11 of the DMSO master plate. For each compound on the master plate, 50 ul of the compound were pipetted in the appropriate well of row 2 (reference plate map to determine appropriate well). A serial dilution was prepared beginning by aspirating 20 ul from row 2 and mixing with row 3, repeating until row 11 was reached. Using the liquid handler, 194 ul of Daudi media was dispensed into wells B2-B11 through G2-G11 of the Media master plate. Using the liquid handler, 6 ul from the DMSO master plate was aspirated and dispensed into the media master plate, mixing 100 ul twice.
# Compounds from master plate were then added to the culture plate. The culture plates were removed from the incubator, and set inside the biosafety cabinet. Using a liquid handler, 20 ul from wells B2 to B11 through G2 to G11 of master plate were aspirated, and dispensed into wells B2 to B11 through G2 to G11 of culture plate. This set was continued with each culture plate. Once the culture plates acquired their 20 ul of compound dilutions, they were placed back into the incubator, until their reads on Day 7 of experiment. Cell death was measured on Day 7 of the experiment using Cell-Titer Glo and a Promega Plate reader. […]
# HBCx11 model = assay: Tumor growth inhibition, subcutaneous engrafted tumor model; assay type: in vivo, mice; details: HRD Positive, RAD51 High, BRCA1 Mut, PALB2 WT, 67A 80 mg/kg QD, olaparib 100 mg/kg QD, combo both
# Experimental: (§1) Immunodeficient mice were subcutaneously engrafted in the rear flank with the tumor cells. The tumors were allowed to grow to a size of about 100 to about 200 mm^3 prior to being randomized and grouped into treatment arms. For models […] through […] the four treatment arms were vehicle, Compound 67A at 80 mg/kg QD, olaparib at 100 mg/kg QD, and Compound 67A+Olaparib at 80 mg/kg QD and 100 mg/kg QD, respectively. For models J000101173 through TM00091 the treatment arms were vehicle, Compound 67A at 40 mg/kg QD, olaparib at 50 mg/kg QD, and Compound 67A+Olaparib at 40 mg/kg QD and 50 mg/kg QD, respectively. The tumors were measured either once weekly or twice weekly.
# (§2) Percent Tumor Growth Inhibition (% TGI) was calculated by taking the mean volume of each of the treatment arms, and comparing the treatment arms to the vehicle arms using the following equation
# HBCx12B model = assay: as above; assay type: in vivo, mice; details: HRD Positive, RAD51 High, BRCA1 Meth, PALB2 WT, 67A 80 mg/kg QD, olaparib 100 mg/kg QD, combo both
# Experimental: as §1, §2
# HBCx16 model = assay: as above; assay type: in vivo, mice; details: HRD Positive, RAD51 High, BRCA1 Meth, PALB2 WT, 67A 80 mg/kg QD, olaparib 100 mg/kg QD, combo both
# Experimental: as §1, §2
# HBCx17 model = assay: as above; assay type: in vivo, mice; details: HRD Positive, RAD51 High, BRCA2 Mut, PALB2 WT, 67A 80 mg/kg QD, olaparib 100 mg/kg QD, combo both
# Experimental: as §1, §2
# HBCx27 model = assay: as above; assay type: in vivo, mice; details: HRD Negative, RAD51 High, BRCA WT, PALB2 WT, 67A 80 mg/kg QD, olaparib 100 mg/kg QD, combo both
# Experimental: as §1, §2
# J000100675 model = assay: as above; assay type: in vivo, mice; details: HRD Negative, RAD51 Low, BRCA WT, PALB2 WT, 67A 40 mg/kg QD, olaparib 50 mg/kg QD, combo both
# Experimental: as §1, §2
# TM000113 model = assay: as above; assay type: in vivo, mice; details: HRD Negative, RAD51 Low, BRCA WT, PALB2 WT, 67A 40 mg/kg QD, olaparib 50 mg/kg QD, combo both
# Experimental: as §1, §2
# TM00090 model = assay: as above; assay type: in vivo, mice; details: HRD Positive, RAD51 Low, BRCA1 Meth, BRCA2 Mut, PALB2 WT, 67A 40 mg/kg QD, olaparib 50 mg/kg QD, combo both
# Experimental: as §1, §2
# TM00091 model = assay: as above; assay type: in vivo, mice; details: HRD Positive, RAD51 High, BRCA1 Mut, PALB2 WT, 67A 40 mg/kg QD, olaparib 50 mg/kg QD, combo both
# Experimental: as §1, §2
# TM00096 model = assay: as above; assay type: in vivo, mice; details: HRD Positive, RAD51 Low, BRCA WT, PALB2 WT, 67A 40 mg/kg QD, olaparib 50 mg/kg QD, combo both
# Experimental: as §1, §2
smiles,measurement,setting,value
"CC(C)OC(=O)Nc1ccc(-c2cnc([C@H]3CC[C@H](NC(=O)OC(C)C)CC3)s2)c(S(=O)(=O)NC(C)(C)C)c1 [Compound 67A, trans-isopropylN-[3-(tert-butylsulfamoyl)-4-[2-[4-(isopropoxycarbonylamino)cyclohexyl]thiazol-5-yl]phenyl]carbamate]",EC50,[1],> 10 µM
same,% TGI,HBCx11 model,23.39%
same,% TGI,HBCx12B model,−3.27%
same,% TGI,HBCx16 model,−22.45%
same,% TGI,HBCx17 model,−51.13%
same,% TGI,HBCx27 model,13.14%
same,% TGI,J000100675 model,36.69%
same,% TGI,TM000113 model,7.24%
same,% TGI,TM00090 model,51.82%
same,% TGI,TM00091 model,27%
same,% TGI,TM00096 model,−25.4%
